Source: patent US6787530B1, “Use of pregnane-diones as analgesic agents” (priority 1996, dated 2004)
Entries after “also recorded” stand apart in the source; their conditions may differ.

Key:
Wistar rat = assay: Electrical current threshold for pain (ECT) in the tail after intragastric dosing, pilot experiment; format: in vivo; conditions: 150 mg suspended in 1% Cremophor EL, 99% saline, intragastrically; one rat approx. 200 g
Method: We performed a pilot experiment on one drug naive nale Wistar rat that weighed approximately 200 g. We measured the nociceptive (pain) threshold in the tail using electrical current as the noxious stimulus. We measured the electrical current threshold for pain (ECT) in the tail every five minutes until the readings stabilised. We then gave 150 mg alphadolone acetate suspended in 1% Cremophor EL, 99% saline, intragastrically.

rats [1] = assay: Sedation scoring (righting reflex, locomotion) after intravenous injection; format: in vivo, rat
From the text: It is generally accepted in the literature that both alphaxalone and alphadolone are intravenous anaesthetics, i.e. when they are given intravenously, they produce sedation and unconsciousness to a level sufficient for surgery. […] Such data, although alluded to in the literature, is not stated clearly with scientific evidence. Thus, we performed the experiments described in Example 2. Rats were given an intravenous injection of alphadolone. All of the rats became unconscious and surgically anaesthetised within 5 seconds of the intravenous injection. […] Thus, it can be concluded that intravenous injection of alphadolone produces unconsciousness.
Four rats (wt 100 g) were given 0.25 ml injections of alphadolone solution (10 mg/ml; dissolved in 10% Cremophor EL), into the lateral tail vein. A stopwatch was used to time the following scoring of sedation every 15 seconds:
1—righting reflex but no spontaneous locomotion
2—spontaneous locomotion but uncoordinated
3—normal locomotion and exploratory behaviour: full recovery
They all recovered fully within 90 seconds of the drug administration.

rats [2] = assay: Loss of righting reflex and loss of coordination in the rotarod test after intraperitoneal dosing
From the text: Groups of 10 rats were examined for the duration of the loss of righting reflex and loss of coordination in the rotarod test and also for antinociceptive effects in the electrical current threshold test measured in the tail. […] Thus we were able to compare the duration of sedation and anaesthesia and quantity of antinociception following intraperitoneal administration of the neurosteroid mixture and also following the components of the mixture at the doses which were given when the combination was used.
We have gone on to test the ability for alphadolone to produce sedation. We have given doses up to […] intraperitoneally of alphadolone.

mice = assay: PAN LABS toxicity test; format: in vivo, mouse
Method: The experiments from our laboratory are supported by observations by an independent body, PAN LABS. A sample of alphadolone used in the above experiments in rats in our laboratory was sent to a commercial drug-testing house, called PAN LABS. They gave the drug to a number of preparations to look for toxicity effects as well as pharmacological effect. In one toxicity test performed at PAN LABS, doses of up to 300 mg per kg of alphadolone was given to mice.

[3] = system: patients scheduled for knee reconstruction surgery; assay: Phase 1 study of oral alphadolone after knee reconstruction surgery: pain scores, PCA morphine consumption, CPM; format: in vivo, human; conditions: for morphine consumption from the PCA machine vs total range of placebo patients: single patients at 100, 250 and 500 mg orally
From the text: A pilot clinical study entitled “Investigation of the analgesic properties of alphadolone acetate administered orally to man—a dose escalation and efficacy study” was submitted to Monash Medical Centre Human Research and Ethics Committee A. It was approved and registered with the Therapeutics Goods Administration it Canberra under the Clinical Trials Notification (CTN) scheme. This was a small pilot study of phase 1 type design but incorporating some randomisation and placebo control because of the nature of the measurements, i.e. subjective pain measurements. The study was performed prospectively, one in three patients randomised to receive placebo formulation (lactose) and double-blind i.e. neither the patient nor the observer (a research anaesthetic registrar) were aware of the nature of the treatment, placebo or alphadolone.
The study consisted of two phases. The first phase was a dose escalation study. At any time during this phase as well as the second phase, if the patient was randomised to receive placebo then a capsule containing lactose was administered orally at the time of medication. If the patient was randomised to receive alphadolone then the first patient so randomised received 25 mg alphadolone acetate orally. The patient was monitored for efficacy of the medication and side effects. If there were no unacceptable side effects such as respiratory depression or severe sedation or disorientation then the next patient randomised to receive the active treatment received a higher dose. The dose escalation planned was in the order, 25, 50, 100, 250, 500 and 1000 mg. The original plan was to continue dose escalation until unacceptable side effects occurred and then to reduce the dose to go onto the next, second, phase of the study, a double-blind comparison of the dose just below the high dose that produced unacceptable side effects compared with placebo. However, the view of the Ethics Committee was that this was more appropriate to a drug company sponsored trial and they ordered that the trial should switch from the dose escalation phase to the comparison phase when there was clear evidence of efficacy.
Thus in the second phase of the study, a double-blind comparison of 250 mg of alphadolone with placebo was carried out. Patient 8, 10, 13 and 14 received 250 mg of alphadolone and patient 9, 11 and 12 received placebo.
14 patients scheduled for knee reconstruction surgery were recruited to this study. On the day prior to surgery for morning surgical patients or on the morning prior to afternoon surgery in those patients scheduled for afternoon lists, written informed consent was obtained from the patients after inclusion and exclusion criteria were met. The patient had to be ASA class 1 or 2, between 18 and 70 years, not using regular analgesics apart from paracetamol and non-steroid anti-inflammatory drugs. These were withheld on the day of surgery. The patient also had to have no renal, hepatic or respiratory disease other than mild asthma and could not be pregnant. No epidural/spinal/knee local anaesthetic or opioid injections were allowed. All patients had to receive post-operative morphine from a patient controlled analgesia device. After obtaining informed consent the patients were then given an opportunity to familiarise themselves with the PCA machine and also practice completing the visual analogue and verbal rating scales used for post-operative assessments.
No premedication was given. The patients were taken to the operating theatre and subjected to a standardised anaesthetic regime that consisted of a propofol induction followed by a propofol infusion and the muscle relaxant of the anaesthetist's preference The trachea was intubated and lungs ventilated with a mixture of nitrous oxide and oxygen. Morphine 1-2 mg intravenously was given as indicated by normal signs of depth of anaesthesia. The amount of morphine used in the operating theatre was recorded in the case record form. […]

[4] = Glaxo in-house experiments; cited from earlier work
[5] = up to six hours after capsule, 100, 250 and 500 mg orally, n = 7

CC(=O)OCC(=O)[C@H]1CC[C@H]2[C@@H]3CC[C@H]4C[C@H](O)CC[C@]4(C)[C@H]3C(=O)C[C@]12C [alphadolone, 21-acetoxy-3alpha-hydroxy-5alpha-pregnane-11,20-dione]
electrical current threshold for pain (ECT) in the tail (Wistar rat): significant rise in tail pain thresholds | righting reflex / sedation (rats [1]; 25 mg/kg intravenous (lateral tail vein), 10% Cremophor EL, four rats): lost the righting reflex and were heavily sedated | time to full recovery after drug administration (rats [1]; 25 mg/kg intravenous, four rats): ≤ 90 s | time to unconsciousness and surgical anaesthesia after intravenous injection (rats [1]; intravenous injection, rats): ≤ 5 s | sedative effects (rats [2]; 0.1 to 100 mg/kg intraperitoneally, rats): No sedative effects were observed | sedation, loss of coordination, abnormal behaviour (rats [2]; doses up to 300 mg/kg intraperitoneally (b128 prints 300 mg/g), rats): no sedative effects whatsoever; also recorded: no evidence of sedation or loss of coordination | sedation and anaesthesia (loss of righting reflex, loss of coordination in rotarod test) (rats [2]; ip, Saffan 2 ml/kg, alphaxalone 18 mg/kg, alphadolone 6 mg/kg, groups of 10 rats): no sedation or loss of righting reflex | grip strength (mice; 300 mg/kg, mice): mild decrease in grip strength; also recorded: slight decrease in grip strength | anaesthesia (mice; doses of up to 300 mg per kg given to mice): did not produce anaesthesia | morphine requirement and pain relief after major knee surgery ([3]; 250 mg and 500 mg given orally): reduced the morphine requirement for pain relief after major knee surgery and at the same time improved the pain relief | morphine sparing over six hours ([3]; (3.62÷12.42)×100% vs placebo): 29.1% | mean morphine usage during the six-hour period after capsule ingestion ([3]; PCA morphine, alphadolone treated patients (placebo 12.42 mg)): 8.8 mg | Standardised VAS scores; Mann-Whitney U-Test, Mean rank ([3]; VAS after capsule as ratio of pre-capsule readings, six hours, 100, 250 and 500 mg orally): 82.85 | morphine consumption from the PCA machine vs total range of placebo patients ([3]; between one and six hours after capsule): fell outside the total range of morphine used by placebo treated patients | verbal rating pain scores compared with placebo (chi squared test) ([3]; n = 7 vs placebo n = 5, p=0.006): significantly lower pain scores | standardised visual analogue scores compared with placebo (Mann-Whitney U-test) ([3]; n = 7 vs placebo n = 5, p=0.0117): significantly lower standadised visual analogue scores | morphine usage compared with placebo (chi-square) ([3]; p=0.0153, p=0.00651 with 3 and 4 mg cells combined): use less than placebo treated patients | Morphine doses in half-hour periods: 0 mg, frequency ([3]; six hours after capsule, n = 7): 39 | Morphine doses in half-hour periods: 1 mg, frequency ([3]; six hours after capsule, n = 7): 29 | Morphine doses in half-hour periods: 2 mg, frequency ([3]; six hours after capsule, n = 7): 15 | Morphine doses in half-hour periods: 3 mg, frequency ([3]; six hours after capsule, n = 7): 1 | Morphine doses in half-hour periods: 4 mg, frequency ([3]; six hours after capsule, n = 7): 0 | morphine usage with increasing alphadolone dose ([3]; six hours after capsule, single patients at 25, 50 and 100 mg orally): progressive reduction in morphine usage | morphine consumption from the PCA machine vs total range of placebo patients ([3]; six hours after capsule): fell outside the total range of the morphine consumption of placebo treated patients | Verbal rating scales for pain: Mild, frequency [3, 5]: 53 | Verbal rating scales for pain: Moderate, frequency [3, 5]: 20 | Verbal rating scales for pain: No pain, frequency [3, 5]: 6 | Verbal rating scales for pain: Severe, frequency [3, 5]: 4 | intravenous anaesthetic potency relative to alphaxolone [4]: one-third the potency
